# Like-named read-outs stand apart in the source and are kept apart here.
# Key:
# [1] = test system: L. donovani MHOM/IN/80/DD8 intracellular amastigotes; assay: Leishmania donovani intracellular amastigote assay in THP-1 cells; type: cell-based
# [2] = test system: T. cruzi intracellular amastigotes; assay: Intracellular anti-Trypanosoma cruzi image-based assay (amastigotes); type: cell-based
# [3] = test system: Plasmodium falciparum 3D7 asexual blood stage; assay: microbe, parasite or virus in culture
# [4] = test system: T. b. brucei 427 bloodstream trypanosomes; assay: T. b. brucei resazurin viability assay; type: cell-based, Trypanosoma brucei brucei; details: for IC50: Trypanosoma brucei
# [5] = test system: NF54-pfs16-LUC-GFP stage IV gametocytes; assay: Plasmodium falciparum late stage gametocyte (LSG) image-based assay; type: cell-based; details: for IC50: Plasmodium falciparum
# [6] = HEK293 resazurin cell cytotoxicity assay; details: human
# 3T3 host cells = assay: T. cruzi assay, activity against 3T3 host cells; type: cell-based; details: reference compound set; IA = inactive at 16.4 μM
# In short: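 3T3 cells were seeded on collagen-coated plates, incubated 24 h at 37 °C, infected with T. cruzi at MOI 5:1, and washed free of extracellular parasites after a further 24 h. Following 48 h compound exposure, cells were fixed, stained with Hoechst 33342 and HCS CellMask Green, and imaged by high-content analysis.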
# Kinase CDPK1 = molecular target: Kinase CDPK1; set-up: method as in earlier work; details: ChEMBL Data; read-out: CROWTHER ref 101) Kinase CDPK1 IC50; cited from earlier work
# P. falciparum ABS = details: cited from earlier work; for EC50: ChEMBL Data, TCMDC, read-out: TCMDC (ref 93) EX50; for IC50: Pf 3D7, ref Pathogen Box supporting information, read-out: Pf 3D7 Pbox IC50
# liver stage = details: liver stage; ref Pathogen Box supporting information; read-out: LIVER STAGE Pbox IC50; cited from earlier work
# HepG2 = details: cited from earlier work; for CC50: read-out: HepG2 PBox CC50 µM
# [7] = test system: P. falciparum stage V gametocytes; details: stage V gametocytes; ref Pathogen Box supporting information; read-out: PF stage V GAMS PBox IC50; cited from earlier work
# [8] = test system: Plasmodium falciparum 3D7 asexual blood stage
# HEK293 cells [9] = test system: HEK293 cells
# [10] = test system: Plasmodium cGMP-dependent protein kinase (PfPKG); set-up: method as in PMID 16325279, PMID 20643897; details: cited from earlier work
# [11] = test system: Candida albicans biofilm formation; set-up: method as in PMID 27795383; details: cited from earlier work
# HEK293 cells [12] = assay: HEK293 resazurin cell cytotoxicity assay
# barber's pole worm = test system: barber's pole worm; set-up: method as in PMID 27524698; details: cited from earlier work
# T. brucei rhodesiense = details: ref Pbox supporting information; read-out: T .b. rohdensie Pbox IC50; cited from earlier work
# [13] = test system: L. infanium (macrophages); set-up: method as in Pbox supporting information; details: ref Pbox supporting information; cited from earlier work
# [14] = test system: T. cruzi C4 β-galactosidase reporter parasite in MRC 5SV2 host cells; details: ref Pbox supporting information; read-out: T. cruzi Pbox IC50; cited from earlier work
# T. brucei brucei = details: ref Pbox supporting information; read-out: T.b. brucei Pbox IC50; cited from earlier work
# [15] = test system: L. infanium (macrophages); set-up: method as in Pathogen Box supporting information; details: ref Pathogen Box supporting information, read-out: L. infanium (macrophages) Pbox IC50; cited from earlier work
# [16] = 3D7, read-out: Pf 3D7 Discovery Biology IC50 µM, P. falciparum 3D7 asexual blood stage, Discovery Biology
# [17] = HepG2 CC50, ref Pathogen Box supporting information
# [18] = NF54, read-out: Pf Stage IV GAMS Discovery Biology IC50 µM, stage IV gametocytes, Discovery Biology
# [19] = HepG2 cytotoxicity, ref PBox supporting information
# [20] = read-out: IC50 T. brucei brucei (Discovery Biology)
# [21] = NF54, read-out: Antiplasmodial IC50 (GAM / LSG), PBox compounds, stage IV gametocytes, single determination
# [22] = Leishmania donovani, THP-1, intracellular amastigotes, Discovery Biology, some values carry an asterisk, read-out: L, donovani Discovery Biology IC50 µM
# [23] = Trypanosoma cruzi, intracellular amastigotes, Discovery Biology, read-out: T cruzi Discovery Biology IC50
smiles,measurement,setting,value
"CC(C)(C)[C@H]1CC[C@H](CC2=C(O)C(=O)c3ccccc3C2=O)CC1 [Buparvaquone, reference compound]",IC50,"[1]; Leishmania donovani, THP-1, read-out: IC50 L. donovani n = 1, reference compound set, first test, IA = inactive at 20 μM",1.88 µM
same,inhibition at 20 µM,"[1]; Leishmania donovani, THP-1, reference compound set, second test, 20 μM, read-out: percent inhibition at the top screening dose, L. donovani n = 2",60%
same,IC50,"[2]; Trypanosoma cruzi, reference compound set, IA = inactive at 16.4 μM, read-out: IC50 T. cruzi intracellular amastigotes",4.92 µM
same,Emax,"[2]; Trypanosoma cruzi, reference compound set, read-out: T. cruzi Emax (maximal % inhibition plateau in dose response curve)",98.5%
same,IC50,"[3]; 3D7, read-out: IC50 P. falciparum 3D7 ABS, reference compound set, 11-point dose response, IA = inactive at 20 μM",0.14 µM
same,IC50,"[4]; reference compound set, IA = inactive at 20 μM, read-out: IC50 T. brucei brucei trypomastigotes",> 20000 nM
same,IC50,"[5]; NF54, read-out: IC50 P. falciparum NF54 LSG, reference compound set, 11-point dose response, IA = inactive at 20 μM",5.3 µM
same,IC50 at 72 h,[6]; HEK293 cells,> 20000 nM
same,IC50,3T3 host cells,> 16400 nM
Nc1ncc(-c2cn[nH]c2)cc1-c1nc2cc(Cl)cnc2[nH]1 [MMV023370],IC50,Kinase CDPK1,280 nM
same,EC50,P. falciparum ABS,920 nM
same,IC50,P. falciparum ABS,400 nM
CN(C(=O)c1cc2c(-c3cncnc3)cccc2[nH]1)c1ccccc1 [MMV024443],IC50,liver stage,1020 nM
same,IC50,[3]; [16],1.69 µM
same,CC50,HepG2; [17],> 10 µM
same,IC50,[7],570 nM
same,IC50,Kinase CDPK1,270 nM
same,IC50,[5]; [18],2.71 µM
same,EC50,P. falciparum ABS,630 nM
same,IC50,P. falciparum ABS,720 nM
CC(C)(CN)c1nc(-c2ccc(Cl)c(O)c2)c(-c2ccnc(N)n2)[nH]1 [MMV030734],IC50,liver stage,320 nM
same,CC50,HepG2; [17],> 10 µM
same,IC50,Kinase CDPK1,7 nM
same,EC50,P. falciparum ABS,980 nM
same,IC50,P. falciparum ABS,410 nM
CCOC(=O)c1c(NC(=O)c2c(F)c(F)c(F)c(F)c2F)sc(C(N)=O)c1C [MMV153413],activity in the Discovery Biology ABS assay,[8],not ABS activity
same,CC50,HepG2; [19],4.2 µM
same,IC50,[4]; [20],2990 nM
same,IC50,[5]; [21],1.06 µM
same,selectivity ratio at 72 h,[6],> 5
"CC(C)=CCC/C(C)=C/CNCCNC1C2CC3CC(C2)CC1C3 (centres unmarked) [MMV687273, SQ-109]",activity against L. donovani in the Discovery Biology assay,[1],active
same,IC50,"[1]; Leishmania donovani, THP-1, read-out: IC50 L. donovani (Discovery Biology), PBox compounds, intracellular amastigotes",3.47 µM
same,activity against T. cruzi in the Discovery Biology assay,[2],active
same,IC50,"[2]; Trypanosoma cruzi, read-out: T cruzi Discovery Biology IC50 µM",5.39 µM
same,IC50,[3]; [16],1.43 µM
same,IC50,"[3]; 3D7, read-out: activity against P. falciparum (novel antiplasmodial actives of the tuberculosis set)",< 2 µM
same,activity in the Discovery Biology ABS assay,[8],active
same,CC50,HepG2; [19],7.1 µM
same,activity against T. brucei brucei in the Discovery Biology assay,[4],active
same,IC50,[4]; [20],2280 nM
same,IC50,[5]; [18],1.89 µM
same,selectivity ratio at 72 h,[6],> 5
Cc1cc(C2=NOC(c3cc(Cl)c(F)c(Cl)c3)(C(F)(F)F)C2)ccc1C(=O)NCc1ccc2c(c1)C(C)(C)OB2O (centres unmarked) [MMV687776],activity in the HEK293 cytotoxicity assay,HEK293 cells [9],did not display activity
same,selectivity index (SI) T. cruzi versus HEK293,[2]; HEK293,> 8
same,selectivity index (SI) T. cruzi versus HEPG2,[2]; HEPG2 (PBox data),4.3
same,IC50,"[2]; Trypanosoma cruzi, PBox compounds, intracellular amastigotes, 48 h exposure, read-out: IC50 T. cruzi (Discovery Biology)",2.39 µM
same,HepG2 PBox CC20 μMc,HepG2,10900 nM
same,IC50,HepG2,10900 nM
CN1CCC(c2cc(-c3ccncc3)c(-c3ccc(F)cc3)[nH]2)CC1 [MMV688703],IC50,"[3]; 3D7, read-out: Antiplasmodial IC50 (ABS), PBox compounds, P. falciparum 3D7",3.16 µM
same,IC50,[10],8.5 nM
same,activity in the Discovery Biology stage IV gametocyte (LSG) assay,[5],does not affect
Cc1[nH]c2ccccc2c1C(c1cccs1)N1CCN(C)CC1 (centres unmarked) [MMV688768],IC50,"[1]; Leishmania donovani, THP-1, intracellular amastigotes, values marked *, read-out: L, donovani Discovery Biology IC50 µM",5.4 µM
same,activity against Candida albicans biofilm formation,[11],inhibitory activity
same,activity in the Discovery Biology ABS assay,[8],not ABS activity
same,HepG2 PBox CC20 μMc,HepG2; ref Pbox supporting information,8500 nM
same,selectivity index (SI) T. brucei brucei versus HEK293,[4]; HEK293,> 13
same,selectivity index (SI) T. brucei brucei versus HEPG2,[4]; HEPG2 (PBox data),> 6
same,IC50,"[4]; PBox compounds, read-out: IC50 T. brucei brucei (Discovery Biology)",1500 nM
same,IC50,[5]; [21],4.7 µM
same,IC50,"HEK293 cells [12]; Homo sapiens, HEK293, read-out: HEK % Inhibition 20uM/IC50 Discovery Biology (IA)",> 20000 nM
"CCc1nn(C)c(C(=O)NCc2ccc(Oc3ccc(C)cc3)cc2)c1Cl [MMV688934, Tolfenpyrad]",activity against the helminth barber's pole worm,barber's pole worm,activity
same,IC50,T. brucei rhodesiense,20400 nM
same,IC50,[13],45600 nM
same,IC50,[14],5350 nM
same,IC50,T. brucei brucei,33000 nM
CC(c1cc(Cl)cc(Cl)c1)N(C)c1ncc2c(N)nc(N)nc2n1 (centres unmarked) [MMV689437],activity against L. donovani in the Discovery Biology assay,[1],demonstrated activity
same,IC50,[1]; [22],5.73 µM
same,activity against T. cruzi in the Discovery Biology assay,[2],demonstrated activity
same,IC50,[2]; [23],0.19 µM
same,activity in the Discovery Biology ABS assay,[8],not active
same,activity against T. brucei brucei in the Discovery Biology assay,[4],not active
same,activity in the HEK293 cytotoxicity assay,HEK293 cells [12],no activity
same,IC50,[15],540 nM
COc1ccc(Oc2ccc([C@@H](C)N(C)c3ncc4c(N)nc(N)nc4n3)cc2)cc1 [MMV690102],activity against L. donovani in the Discovery Biology assay,[1],demonstrated activity
same,IC50,[1]; [22],0.46 µM
same,activity against T. cruzi in the Discovery Biology assay,[2],demonstrated activity
same,IC50,[2]; [23],0.09 µM
same,activity in the Discovery Biology ABS assay,[8],not active
same,activity against T. brucei brucei in the Discovery Biology assay,[4],not active
same,activity in the HEK293 cytotoxicity assay,HEK293 cells [12],no activity
same,IC50,[15],30 nM
C[C@H](c1ccc2c(c1)CCCC2)N(C)c1ncc2c(N)nc(N)nc2n1 [MMV690103],activity against L. donovani in the Discovery Biology assay,[1],demonstrated activity
same,IC50,[1]; [22],5.2 µM
same,activity against T. cruzi in the Discovery Biology assay,[2],demonstrated activity
same,IC50,[2]; [23],0.1 µM
same,activity in the Discovery Biology ABS assay,[8],not active
same,activity against T. brucei brucei in the Discovery Biology assay,[4],not active
same,activity in the HEK293 cytotoxicity assay,HEK293 cells [12],no activity
same,IC50,[15],470 nM
